Experimental data as given in patent US4377592A, “Antiarrhythmic activity of cetiedil” (Innothera, priority 1979, dated 1983).
Several values for one entry are separate records, joined by “and”; a condition that tells them apart may be missing. Equal entries are not always repeated. Where two headings read alike, the source gives them in different places.

Tests used:
[1] = system: chloroform-induced ventricular fibrillation; assay: Chloroform-induced ventricular fibrillation in the mouse; type: in vivo
From the text: In this technique first described by LAWSON, J. W. in J. Pharm. Exp. Ther. 1968, 160, 22 and Vargaftig, B. B. et al in Eur. J. Pharmacol. 1969, 6, 49, the inhalation of chloroform vapour produced in the mouse apnea followed by ventricular fibrillation.
The mechanism of this technique remains unknown.

[2] = system: polymorphous arrhythmias induced by adrenaline petrol-ether; assay: Polymorphous arrhythmias induced in the anaesthetised guinea-pig by adrenaline and petrol ether; type: in vivo
From the text: Adrenaline in high dosage is a powerful arrhythmogenic stimulus to a myocardia induced by petrol ether, as recognized in the guinea-pig by LE MARECHAL J., Thesis Doct.

[3] = system: ventricular fibrillation induced by CaCl2; assay: Calcium (CaCl2) induced ventricular fibrillation in the anaesthetized rat, Malinow's technique; type: in vivo
Experimental: According to MALINOW, M. R., et coll. Acta. Physiol Latino. Americ.
Using the anaesthetized rat, 200 mg/kg of CaCl2 was injected two minutes after the substances to be tested. The ECG was recorded continuously in lead II.

[4] = system: ventricular tachycardia induced by ouabaine; assay: Ouabain induced ventricular tachycardia in the anesthetized guinea-pig; type: in vivo; details: 5 and 10 mg/kg
Experimental: This test is used to determine the dose of ouabain administered by slow infusion necessary to obtain the appearance of ventricular extrasystoles. The animal used was the guinea pig and the substances were administered intravenously.

[5] = system: ventricular tachycardia induced by Ouabain; assay: Ouabain induced ventricular tachycardia in the dog (Lucchesi and Hardman); type: in vivo; details: at the average effective dose
From the text: The method used is that of […] and HARDMAN, J. Pharmacol. Exp. Ther. 1961, 132, 372-381. Ventricular tachycardia was obtained by the sequential administration of Ouabain until a permanent ventricular tachycardia developed. Following observation of the effect of the substance, the reappearance of this ventricular tachycardia following the injection of insulin was confirmed, thereby showing the persistence within the heart of a toxic dose of Ouabain (Average dose of Ouabain 71.25 γ kg IV).

[6] = system: isolated guinea-pig atrial; assay: Stimulated isolated guinea pig atrial (technique of Dawes); type: cell-based
From the text: (§1) The technique of DAWES (modified by ALLIES ET AL.) was used with the isolated guinea-pig atrial, and the technique of DUCHENE-MARULLAZ, J. Pharmacol. Paris, 1970, 1, 539, in the anaesthetized dog. This method is used to study the permeability of atrio-ventricular conduction, and thus more precisely conduction at the level of Tawara's nod.

[7] = system: atrio-ventricular conduction; assay: Atrio-ventricular conduction in the anaesthetized dog (Duchene-Marullaz); type: in vivo
From the text: as §1

[8] = system: rabbit cornea oculo-palpebral reflex; type: in vivo; details: for TOTAL DEGREE OF ANAESTHESIA FOR 60 minutes: rabbit cornea, total 13 no anaesthesia, 1300 complete
From the text: For the purpose of this study, the classical technique of REGNIER J., Thesis Doct. […] This consists of repeating touching of the rabbit cornea until an oculo-palpebral reflex is obtained. It should be noted that […], in common with the reference substances, was used in the form of the HCl Salt.

rat aortic fragments [9] = assay: Contraction of rat aorta fragment induced by potassium depolarisation; type: cell-based; details: for pD'2: pD'2 = pDx + log (x - 1)
Experimental: (§2) Fragments of aorta removed from rats are immersed in survival fluid in the presence of carbogene at 37° C. By modifying the ionic equilibrium of the survival medium, it was possible to study the effects of […] on contraction of the aortic fragments induced by depolarisation with potassium or calcium.

rat aortic fragments [10] = assay: Competitive antagonism of calcium dose/effect curve of contraction of rat aortic fragment; type: cell-based; details: competitive inhibition versus calcium
Experimental: as §2

[11] = Tolerance of normal healthy adult male subjects to cetiedil given by intravenous infusion; type: in vivo, human
[12] = cited from earlier work
in vivo = details: mouse, iv

O=C(OCCN1CCCCCC1)C(c1ccsc1)C1CCCCC1 (stereo not drawn) [citrate monohydrate of α-cyclohexyl-3-thiopheneaceticacid 2-(hexahydro-1H-azepin-1-yl)ethyl ester]
activity relative to propranolol ([1]; chloroform induced fibrillation in the mouse): ten times less powerful than propranolol | ED50 ([1]; mouse, chloroform vapour inhalation, IP, read-out: ED50): ~50 mg/kg | ED50 ([2]; Cavia porcellus, ip, guinea-pig, urethane 1.2 g/kg IP, substance 5 minutes before intoxication, read-out: ED50 (dose decreasing by half the duration of the disturbances)): ~1.2 mg/kg | index I = LD50 IV/ED50 ([2]; Table 1, adrenaline petrol-ether, guinea-pig ED50, mouse LD50): 47.50 | activity relative to the reference β-blocker ([2]; guinea pig, adrenaline and petrol-ether): three times less active than the reference β-blocker | index LD50/AD50 (ventricular fibrillation) ([3]; Table 2): 18,69 | index LD50/AD50 (death) ([3]; Table 3): 16.29 | AD 50 protection against ventricular fibrillation ([3]; anaesthetized rat, CaCl2 200 mg/kg IV two minutes after substance): 3,50 mg/kg/IV | ED50 ([3]; anaesthetized rat, CaCl2 200 mg/kg IV two minutes after substance, read-out: AD 50 protection against ventricular fibrillation): 3.5 mg/kg | threshold before the development of cardiac disturbances [4]: significant increase | duration of return to sinus rhythm [5]: more than 30 min | % DECREASE SPONTANEOUS RATE ([6]; concentration 10^-5): 26% | % DECREASE m.f.s. (maximum frequency followed by the atrial) ([6]; concentration 10^-5): 27% | % DECREASE SPONTANEOUS RATE ([6]; concentration 10^-6): 6% | % DECREASE m.f.s. (maximum frequency followed by the atrial) ([6]; concentration 10^-6): 14% | % DECREASE SPONTANEOUS RATE ([6]; concentration 10^-7): 9% | % DECREASE m.f.s. (maximum frequency followed by the atrial) ([6]; concentration 10^-7): 6% | negative bathmotropic effect ([6]; concentration of 1.10^-6): identical to that of Quinidine and less than that of Propranolol | effect on atrio-ventricular conduction after denervation ([7]; anaesthetized dog, denervated): not altered by denervation | effect on atrio-ventricular conduction ([7]; anaesthetized dog, intact): significant depression which was proportional to the dose injected | chronotropic effect ([7]; dog): absence of any significant negative chronotropic effects | effects on contractile force of the myocardia ([7]; dog, doses of 2.5 and 5 mg/kg): slight | local anaesthetic effects relative to cocaine ([8]; rabbit): twice as great as those of cocaine | TOTAL DEGREE OF ANAESTHESIA FOR 60 minutes ([8]; 0.25 g./100, HCl salt): 393.2 | TOTAL DEGREE OF ANAESTHESIA FOR 60 minutes ([8]; 0.50 g./100, HCl salt): 798.8 | duration of complete local anaesthesia ([8]; rabbit, local instillation, concentration of 0.5%): 15 min | IC50 (rat aortic fragments [9]; in the presence of 1.26 mM of calcium, read-out: concentration reducing by half the force of contraction): 6 µM | pD'2 (mean) (rat aortic fragments [9]; mean ± SD, potassium depolarisation): 5.23 ± 0.05 and 5.23 | x (rat aortic fragments [9]; single experiment, cetiedil concentration 1 (pDx 6.00)): 1.16 | pD'2 (rat aortic fragments [9]; single experiment, cetiedil concentration 1): 5.20 | x (rat aortic fragments [9]; single experiments, cetiedil concentration 5 (pDx 5.30)): 1.50 and 2.17 | pD'2 (rat aortic fragments [9]; single experiments, cetiedil concentration 5): 5.00 and 5.37 | x (rat aortic fragments [9]; single experiments, cetiedil concentration 10 (pDx 5.00)): 2.78 and 3.24 and 2.70 | pD'2 (rat aortic fragments [9]; single experiments, cetiedil concentration 10): 5.25 and 5.35 and 5.23 | pA2 (rat aortic fragments [10]): 6.27 | overall safety conclusion ([11]; 0.359 mg/kg infused 9 times over a 10 day-period): safe drug | abnormalities in electrocardiograms, blood chemistry, hematologic profiles, urine analyses ([11]; 10 volunteers, 0.359 mg/kg, 9 infusions over 10 days): no significant abnormalities | subjects with doubtful elevation in SGOT value ([11]; after completion of study-period, of 10): 2 subjects | average duration of side effects after completion of infusion ([11]; after the first infusion): 72.9 min | subjects complaining of side effects ([11]; after the first infusion): 7 subjects | duration of side effects ([11]; after the ninth infusion): 15 min | subjects complaining of side effects ([11]; after the ninth infusion): 3 subjects | K+ level ([11]; another subject, after completing the study): slight reduction | Ca++ level ([11]; one subject, after completing the study): minimal elevation | systemic blood pressure ([11]; one to four hours after infusion): slightly decreased | Pulse rate ([11]; usually one hour after the infusion): slightly reduced | share of circulating radio-activity due to a metabolite ([12]; 5 minutes after intravenous injection of 0.25 mg): half | digestive absorbtion ([12]; C14): excellent | Rectal absorption ([12]; in vivo): relatively low, and above all, very slow | Biliary excretion ([12]; individual with a biliary drain): no more than 11% | terminal half-life of plasma radio-activity ([12]; man, 0.25 mg intravenous, C14): approximately five | terminal half-life of urinary excretion ([12]; man, C14): ~26 h | radio-activity excreted in the urines ([12]; man, intact biliary circulation): approximately 65% | plasma radioactivity following oral administration ([12]; man, versus intravenous injection): markedly higher than after intravenous injection | urinary excretion ([12]; patient who had undergone surgery): 42% | radio-active transformation substance in urine ([12]; urine passed 1 hour following the injection): 100% | LD50 (in vivo): 57 mg/kg
